Marks after values point to notes of the source that are not given here.

Data set [1] deals with tumor. Briefly: Anti-tumor activity compared with a compound of the invention (no method given). The settings on record: compared with a respective comparative compound according to the invention.
The nature of data set [2]: Preventive effect against the growth of Ehrlich ascites tumor (method A). In kind it is in vivo, mice. The following applies: mouse, in vivo, ip; Maximum Tolerated Dose: maximum dose with 100% inhibition of Ehrlich ascites tumor growth without death of mice; dose column in mg/kg/day. On the procedure: (§1) (A) Preventive effect against the growth of Ehrlich ascites tumor:
(§2) 10^6 tumor cells of Ehrlich ascites carcinoma were inoculated intraperitoneally into a group of five female mice (ICR mice, body weight: 19-23 g). A test compound was dissolved in a physiological saline solution. (In the case where CCNU was employed as the test compound, said compound was suspended in a physiological saline solution containing 0.1% NIKKOL HCO-60 (trademark; a surface active agent manufactured by Nikko Chemicals Co. Ltd.)) and administered intraperitoneally to the mice. The administration of the test compound was begun 24 hours after the inoculation of the tumor cells and performed once a day for 5 days. The volume of ascites in the treated mice were measured after 7 days of the experiment.

The subject of data set [3] is Ehrlich ascites carcinoma. The data set is described as above. In kind it is in vivo, mice. On the procedure:
as §1, §2

The subject of data set [4] is leukemic cells of L-1210. Kind of data set: Effect on the life span of mice implanted with leukemic cells of L-1210 (method B). The following applies: for ILS (%): Increase in Life Span; for 60-day survivors: mice survived for 60 days/mice used. In kind it is in vivo. On the procedure: (B) Effect on the life span of mice implanted with leukemic cells of L-1210:
10^5 leukemic cells of L-1210were inoculated intraperitoneally into a group of four male mice (BDF1 mice, body weight: 19-23 g). A test compound was dissolved in a physiological saline solution and administered intraperitoneally to the mice. The administration of the test compound was begun 24 hours after the inoculation of the leukemic cells and performed once a day for 5 days. The survival days of the treated mice were observed.

[5] abbreviates: dose 6.25 mg/kg/day i.p. x 5 days.
The mark [6] stands for this setting: dose 12.5 mg/kg/day i.p. x 5 days.
Setting [7] is: dose 25 mg/kg/day i.p. x 5 days.

For the compound `O=C(NCCCl)N[C@H]1[C@H](O)[C@@H](CO)OC(O)[C@@H]1O` (some centres unmarked) [3 - [3 - (2 - chloroethyl)ureido] - 3 - deoxy - D - glucopyranose], the anti-tumor activity result in data set [1] was “lower anti-tumor activity”.
On to `C=CCN(C(=O)N(CCCl)N=O)[C@@H]1[C@@H](O)[C@@H](OC)O[C@H](CO)[C@H]1O` [Compound 4, 1 - (2 - chloroethyl) -1 - nitroso - 3 - allyl - 3 - (methyl 3 - deoxy - α - D - glucopyranosid - 3 - yl)urea], for which the MTD (usually the largest dose that counted as tolerated) at 168 h in data set [2] is 25 mg/kg/day. Besides, in data set [3] (M. T. D./M. E. D.), the Therapeutic index turned out to be 128. Further, the inhibition in vivo at 0.097 mg/kg/day in data set [3] (Mus musculus, Ehrlich, ip, 168 h, dose 0.097 mg/kg/day i.p. x 5 days, read-out: Inhibition ratio (%)) worked out at 29.7%. For the same compound, in data set [3] (Mus musculus, Ehrlich, ip, 168 h, dose 0.195 mg/kg/day i.p. x 5 days, read-out: Inhibition ratio (%)), the inhibition in vivo at 0.195 mg/kg/day was determined as 100%. The inhibition in vivo at 0.39 mg/kg/day in data set [3] (Mus musculus, Ehrlich, ip, 168 h, dose 0.39 mg/kg/day i.p. x 5 days, read-out: Inhibition ratio (%)) was determined as 100%. In addition, the inhibition in vivo at 1.56 mg/kg/day in data set [3] (Mus musculus, Ehrlich, ip, 168 h, dose 1.56 mg/kg/day i.p. x 5 days, read-out: Inhibition ratio (%)) was determined as 100%. Moreover, the inhibition in vivo at 6.25 mg/kg/day in data set [3] (Mus musculus, Ehrlich, ip, 168 h, dose 6.25 mg/kg/day i.p. x 5 days, read-out: Inhibition ratio (%)) worked out at 100%. Besides, the inhibition in vivo at 25 mg/kg/day in data set [3] (Mus musculus, Ehrlich, ip, 168 h, dose 25 mg/kg/day i.p. x 5 days, read-out: Inhibition ratio (%)) turned out to be 100%. For the same compound, in data set [3] (Mus musculus, Ehrlich, ip, 168 h, minimum effective dose which shows 100% inhibition for the growth of the ascites tumor, dose column in mg/kg/day, read-out: MED), the minimal effective dose turned out to be 0.195 mg/kg/day. Besides, in data set [3] (dose 50 mg/kg/day i.p. x 5 days, group of five mice), the “Toxic” value is on record as “Toxic (3/5)*”. The “ILS (%)” value in data set [4] (setting [5]) is 80.2%; in data set [4] (setting [6]) it was over 597.7%; in data set [4] (setting [7]), over 496.5%. The “Mean survival days (T/C)” value is given as 15.5/8.6 days in data set [4] (T (treated mice), dose 6.25 mg/kg/day i.p. x 5 days); >60.0/8.6 days in data set [4] (T (treated mice), dose 12.5 mg/kg/day i.p. x 5 days); >51.3/8.6 days in data set [4] (T (treated mice; figure after the slash is untreated control C), dose 25 mg/kg/day i.p. x 5 days). Further, the 60-day survivors is listed as 0/4 in data set [4] (setting [5]), 4/4 in data set [4] (setting [6]) and 3/4 in data set [4] (setting [7]).

Values taken from patent EP0056458B1, “Nitrosourea derivatives, a process for preparing same and therapeutic compositions” (Tanabe Seiyaku Co., Ltd., priority 1981, dated 1982).
